This passage reports Solubility in water results from patent publication US6921824B1, “Ruthenium dimeric complexes suitable as antimetastatic and antineoplastic agents” (priority 1999, dated 2005).

This data set is described as follows: Solubility in water (remark in preparation). The data set is classed as physicochemical.

Consider “[K]2[trans-RuCl4(Me2SO)]2(μ-pyz) [Example 6]”, for which the Solubility in water result is “not very soluble in water”.
